Kp and concentration data for 2 molecules are collected here from ChEMBL document CHEMBL1140491, “Amino-caprolactam derivatives as gamma-secretase inhibitors” (Bioorg Med Chem Lett, 2007).

Series [1] can be described thus: Ratio of drug level in brain to plasma in Tg2576 mouse at 200 mg/kg, po after 3 hrs.
Series [2] in a line: Drug level in Tg2576 mouse plasma at 200 µmol/kg, po after 3 hrs.
A short description of series [3]: Drug level in Tg2576 mouse brain at 200 µmol/kg, po after 3 hrs. The note with it: read-out: Drug uptake.

`CN(C)c1ccc(CN([C@@H]2CCCCNC2=O)S(=O)(=O)c2ccc(Cl)cc2)cc1`: the Kp (as a rule, the ratio of the level in a tissue or fluid to that in plasma or blood) at 3 h in series [1] was 2.8. The concentration at 3 h in series [2] amounted to 1600 nM; in series [3], 4200 nM.
With `COc1ccc(CN([C@@H]2CCCCNC2=O)S(=O)(=O)c2ccc(Cl)cc2)cc1`, the Kp at 3 h in series [1] is 7. The concentration at 3 h in series [2] stood at 280 nM; in series [3], 2200 nM.
